Measurements published in patent publication US7736649B2, “Methods of inhibiting human immunodeficiency virus infection through the administration of synergistic combinations of anti-CCR5 monoclonal antibodies, fusion inhibitors, and CD4-GP120 binding inhibitors” (priority 2000, dated 2010).
Read-outs that look alike come from different tables or passages of the source.

What was measured:
HIV-1 = conditions: cited from earlier work
[1] = system: HIV-1 fusion intermediates; conditions: cited from earlier work
HIV-1JR-FL (R5) = system: HIV-1JR-FL (R5)
Description: HIV-1 virus-cell fusion assays NLluc^+env^− viruses were complemented in trans by the envelope glycoproteins (Env) from HIV-1JR-FL (R5) or HIV-1DH123 (R5X4). HeLa-CD4^+CCR5^+ cells were infected with chimeric reporter viruses containing 50-100 ng/ml of p24 in the presence or absence of drugs. Cells were washed and fed fresh drug-containing media at 2 h and drug-free media at 12 h. After 72 h, cell lysates were assayed for luciferase activity.
(§1) Quantitative analysis of drug interactions Inhibition data from three independent assays were averaged and analyzed for cooperative effects using the Combination Index (CI) method. In all analyses, PRO 542 and T-20 were assumed to act non-competitively, which leads to a more conservative estimate of synergy. CI values of <0.9 (or >1.1) were taken to represent meaningful synergy (or antagonism). Dose reductions were calculated as the ratio of drug concentrations required for inhibition when the drug is used, alone or in combination.
An HIV-1 virus-cell fusion assay is described in FIG. 15. In a single-cycle HIV-1 entry assay, Env-Luc+ HIV reporter viruses were prepared as described. The viruses are complemented with gp120/gp41 from an HIV strain of interest and thus are capable of fusing with target cells that express CD4 and fusion coreceptors, resulting in the introduction of the viral genes into the cell. Because the viruses encode the luciferase reporter enzyme rather than HIVenv, infection leads to the production of luciferase rather than new viral particles. The amount of luciferase is measured 72 hours post-infection using standard methods.

[2] = system: HIV-1JR-FL env-mediated membrane fusion
Description: HIV-1 envelope-mediated fusion between HeLa-EnvJR-FL and PM1 cells was detected using a Resonance Energy Transfer (RET) assay.
HIV-1 inhibition data were analyzed according to the Combination Index method of Chou and Talay. The data are modeled according to the median-effect principle, which can be written f=1/[1+(K/c)^m] (1) where f is the fraction affected/inhibited, c is concentration, K is the concentration of agent required to produce the median effect, and m is an empirical coefficient describing the shape of the dose-response curve. Equation (1) is a generalized form of the equations describing Michaelis-Menton enzyme kinetics, Langmuir adsorption isotherms, and Henderson-Hasselbalch ionization equilibria, for which m=1 in all cases. In the present case, K is equal to the IC50 value. K and m are determined by curve-fitting the dose-response curves.
After the best-fit parameters for K and m are obtained for the experimental agents and their combination, Equation (1) is rearranged to allow for calculation of c for a given f. The resulting table of values (e.g., Figure X) is used to calculate the Combination Index (CI) using the equation CI=c1m/c1+c2m/c2+c1mc2m/c1c2 (2) where • c1=concentration of compound 1 when used alone • c2=concentration of compound 2 when used alone • C1m=concentration of compound 1 in the mixture • C2m=concentration of compound 2 in the mixture
All concentrations are those required to achieve a given degree of inhibition. Equation (2) is used when the molecules are mutually nonexclusive, i.e., have different sites of action. Since this is the likely scenario for inhibitors of HIV-1 attachment and gp41 fusion intermediates, Equation (2) was used for all Combination Index calculations. Mutually nonexclusive calculations provide a more conservative estimate of the degree of synergy that mutually exclusive calculations, for which the c1mc2m/c1c2 term is dropped. CI<1 indicates synergy, CI=1 indicates purely additive effects, and CI>1 indicates antagonism. In general, CI values are most relevant at the higher levels of inhibition that are required to achieve a measurable clinical benefit.
After the best-fit parameters for K and m are obtained for the experimental agents and their combination, Equation (1) is rearranged to allow for calculation of c for a given f. The resulting table of values (e.g., Figure X) is used to calculate the Combination Index (CI) using the equation CI=c1m/c1+c2m/c2+c1mc2m/c1c2 (2) where • c1=concentration of compound 1 when used alone • c2 concentration of compound 2 when used alone • c1m=concentration of compound 1 in the mixture • c2m=concentration of compound 2 in the mixture
HIV-1 cell-cell fusion assays Cell-cell fusion mediated by the envelope glycoproteins of HIV-1JR-FL and HIV-1LAI was measured using a fluorescence resonance energy transfer (RET) assay, which measures fusion between HeLa cells expressing HIV-1 envelope glycoproteins and CD4^+ target cells. The T cell lines PM1 and SupT1 were used as target cells in this study. PM1 endogenously express CCR5 and CXCR4. […] The RET signal is directly related to the extent of membrane fusion.
as §1
An HIV-1 cell-cell fusion assay is described in FIG. 18. Such assay is a Resonance Energy Transfer (RET) assay of HIV-1 membrane fusion.

[3] = cells and inhibitor co-incubated 2 h at 25° C. prior to washing and warming to 37° C., data not shown

Substance: enfuvirtide
- pK, in words (HIV-1; Phase I/II clinical trials): supports twice daily subcutaneous dosing
- tolerability (HIV-1; Phase I/II clinical trials): good tolerability
- viral load, in words (HIV-1; Phase I/II clinical trials): clinically significant dose-dependent reductions
- reduction of plasma HIV RNA levels (HIV-1; Phase I/II): ≤ 2 logs
- reductions in HIV RNA (HIV-1; single agent, Phase I/II trials): 1-2 log10
- inhibition ([1]; added at 75 minutes): < 10%
- inhibition ([1]; added within the first 15 minutes of cell mixing): 100%
- dose reduction (fold less drug needed) (HIV-1JR-FL (R5); 90-95% inhibition, 1:2 molar): ~20 fold
- IC90 (HIV-1JR-FL (R5); read-out: IC90 (concentration required for 90% inhibition), alone, or total of 1:2 molar PRO 542:T-20 combination): 45 nM
- IC90 (HIV-1JR-FL (R5); read-out: concentration of the agent in the combination at IC90, 1:2 molar combination): 2.6 nM
- concentration of the agent contained in the combination at 95% inhibition ([2]; 25:1 CD4-IgG2:T-20 mass ratio combination): 0.044 µg/mL
- dose reduction (alone v. in combination) ([2]; 95% inhibition, 25:1 mass ratio): 5 fold
- activity in cell-cell preincubation assay, in words ([2]; HeLa-Env and PM1 cells co-incubated 2 h at 25° C., inhibitor added, warmed to 37° C.): fully active
- concentration required for inhibition of viral entry by 95% ([2]; agent used alone, or total of 25:1 mass ratio combination): 0.21 µg/mL
- IC90 ([2]; alone, or total of 1:10 molar PRO 542:T-20 combination): 22 nM
- K (concentration producing the median effect, equal to IC50) ([2]; best-fit median-effect parameter, 4 h incubation, mean of three experiments): 0.017 µg/mL
- activity, in words [2, 3]: essentially inactive
- fold increase in IC50 [2, 3]: > 250 fold
- activity when pre-incubated with PM1 cells prior to washing ([2]; data not shown): Neither drug demonstrated activity
- activity in washout assay, in words ([2]; drug pre-incubated with HeLa-Env cells, washed, then PM1 cells added): essentially inactive
- IC90 ([2]; read-out: concentration of the agent in the combination at IC90, 1:10 molar combination): 4.9 nM
